A short description of data set [1]: log P determination by HPLC (EEC Directive 79/831 Annex V.A8, gradient method). Format: physicochemical. The settings on record: HPLC, gradient method, acetonitrile/0.1% strength aqueous phosphoric acid or formic acid.
In data set [2] the test system is caterpillars of the army worm (Spodoptera frugiperda). Nature of the data set: Spodoptera frugiperda test, SPODFR spray treatment. Format: in vivo. The settings on record: foliar, 168 h, 500 g a. i./ha, spray treatment of maize leaf discs, 7 d, read-out: % 7 d (effect in %, caterpillars killed). The protocol: [table] To produce a suitable preparation of active compound, 1 part by weight of active compound is mixed with the stated amounts of solvents and emulsifier, and the concentrate is diluted with emulsifier-containing water to the desired concentration. Discs of maize leaves (Zea mays) are sprayed with a preparation of active compound of the desired concentration and, after drying, populated with caterpillars of the army worm (Spodoptera frugiperda). After the desired period of time, the effect in % is determined. 100% means that all caterpillars have been killed; 0% means that none of the caterpillars have been killed.

Where two headings read alike, the source gives them in different places.

Take `CC(NC(=O)/C=C/c1c(-c2ccccc2F)nc2sc(C(F)(F)F)nn12)C(F)(F)F` (stereo not shown) [Example 0459]: in data set [1] (read-out: Physical data: log P), the chromatographic logP was 3.55. For the same compound, the pest or weed control at 500 g/ha in data set [2] was 100%.

With `CC(C)C(NC(=O)/C=C/c1c(-c2ccc(F)cc2Cl)nc2sc(C(F)(F)F)nn12)C(F)(F)F` (stereo not shown) [Example 0599], in data set [1] (read-out: Physical data: log P), the chromatographic logP is 4.37. In data set [2], the pest or weed control at 500 g/ha turned out to be 100%.

Take `CC(C)C(C)NC(=O)/C=C/c1c(-c2ccccc2Cl)nc2sc(C(F)(F)Cl)nn12` (stereo not shown) [Example 0740]: the chromatographic logP in data set [1] (read-out: Physical data: logP) worked out at 3.97. Also, the pest or weed control at 500 g/ha in data set [2] is 100%.

For `CC(C)NC(=O)/C=C/c1c(-c2ccccc2F)nc2sc(C(F)(F)F)nn12` [Example 0442], the chromatographic logP in data set [1] (read-out: Physical data: log P) stood at 2.96. Moreover, in data set [2], the pest or weed control at 500 g/ha came to 100%.

In the case of `CCC(C)NC(=O)/C=C/c1c(-c2ccccc2Cl)nc2sc(C(F)(F)F)nn12` (stereo not shown) [Example 0167], in data set [1] (read-out: Physical data (logP)), the chromatographic logP came to 3.46. In data set [2], the pest or weed control at 500 g/ha was found to be 100%.

Take `CC(C)NC(=O)/C=C/c1c(-c2ccc(F)cc2Cl)nc2sc(C(F)(F)F)nn12` [Example 0581]: in data set [1] (read-out: Physical data: log P), the chromatographic logP is 3.32. For the same compound, in data set [2], the pest or weed control at 500 g/ha worked out at 100%.

With `O=C(/C=C/c1c(-c2ccc(F)cc2Cl)nc2sc(C(F)(F)F)nn12)NCCC(F)(F)F` [Example 0604], in data set [1] (read-out: Physical data: log P), the chromatographic logP is 3.51. Besides, the pest or weed control at 500 g/ha in data set [2] came out at 100%.

For the compound `Cc1ccccc1-c1nc2sc(C(F)(F)F)nn2c1/C=C/C(=O)NC(C)C(C)C` (stereo not shown) [Example 0245], in data set [1] (read-out: Physical data: log P), the chromatographic logP was 3.9. For the same compound, the pest or weed control at 500 g/ha in data set [2] was 83%.

For `CC(NC(=O)/C=C/c1c(-c2ccccc2Cl)nc2sc(C(F)(F)F)nn12)C(F)(F)F` (stereo not shown) [Example 0175], the chromatographic logP in data set [1] (read-out: Physical data (logP)) turned out to be 3.63. The pest or weed control at 500 g/ha in data set [2] came out at 100%.

As for `O=C(/C=C/c1c(-c2ccccc2Cl)nc2sc(C(F)(F)F)nn12)NC1CCC1` [Example 0153], the chromatographic logP in data set [1] (read-out: Physical data (logP)) is 3.33. The pest or weed control at 500 g/ha in data set [2] is 100%.

Turning to `CCC(C)NC(=O)/C=C/c1c(-c2ccccc2C)nc2sc(C(F)(F)F)nn12` (stereo not shown) [Example 0238], the chromatographic logP in data set [1] (read-out: Physical data: log P) was determined as 3.59. Besides, the pest or weed control at 500 g/ha in data set [2] came to 100%.

As for `CCN(CC)C(=O)/C=C/c1c(-c2ccc(Cl)cc2Cl)nc2sc(C(F)(F)F)nn12` [Example 0573], in data set [1] (read-out: Physical data: log P), the chromatographic logP came to 4.18. Moreover, the pest or weed control at 500 g/ha in data set [2] worked out at 100%.

For the compound `CCC(C)NC(=O)/C=C/c1c(-c2ccccc2Cl)nc2sc(C(F)(F)Cl)nn12` (stereo not shown) [Example 0733], the chromatographic logP in data set [1] (read-out: Physical data: logP) came to 3.67. For the same compound, the pest or weed control at 500 g/ha in data set [2] stood at 100%.

With `CCC(CC)NC(=O)/C=C/c1c(-c2ccc(F)cc2Cl)nc2sc(C(F)(F)F)nn12` [Example 0638], the chromatographic logP in data set [1] (read-out: Physical data: logP) is 3.89. Besides, the pest or weed control at 500 g/ha in data set [2] is 100%.

`CCC(C)NC(=O)/C=C/c1c(-c2ccccc2F)nc2sc(C(F)(F)F)nn12` (stereo not shown) [Example 0451]: in data set [1] (read-out: Physical data: log P), the chromatographic logP worked out at 3.33. The pest or weed control at 500 g/ha in data set [2] came to 100%.

In the case of `CC(C)C(C)NC(=O)/C=C/c1c(-c2ccccc2Cl)nc2sc(C(F)(F)F)nn12` (stereo not shown) [Example 0174], in data set [1] (read-out: Physical data (logP)), the chromatographic logP is 3.76. In data set [2], the pest or weed control at 500 g/ha worked out at 83%.

Regarding `CCC(CC)NC(=O)/C=C/c1c(-c2ccccc2F)nc2sc(C(F)(F)F)nn12` [Example 0499], the chromatographic logP in data set [1] (read-out: Physical data: log P) stood at 3.59. Also, in data set [2], the pest or weed control at 500 g/ha is 83%.

Take `CC(C)C(C)NC(=O)/C=C/c1c(-c2ccc(F)cc2Cl)nc2sc(C(F)(F)F)nn12` (stereo not shown) [Example 0597]: the chromatographic logP in data set [1] (read-out: Physical data: log P) came to 3.9. In addition, in data set [2], the pest or weed control at 500 g/ha came out at 100%.

Turning to `CC(NC(=O)/C=C/c1c(-c2ccc(Cl)cc2Cl)nc2sc(C(F)(F)F)nn12)C(F)(F)F` (stereo not shown) [Example 0527], the chromatographic logP in data set [1] (read-out: Physical data: log P) came out at 4.23. For the same compound, the pest or weed control at 500 g/ha in data set [2] came out at 100%.

`CC(C)NC(=O)/C=C/c1c(-c2ccc(F)cc2)nc2sc(C(F)(F)F)nn12` [Example 0300]: in data set [1] (read-out: Physical data: log P), the chromatographic logP was found to be 3.24. In addition, the pest or weed control at 500 g/ha in data set [2] is 100%.

Source of the values: patent publication US20090118286A1, “Heterobicyclic Acrylamides” (Bayer Cropscience AG, priority 2005, published 2009).
